Measurements reported in the NIST ThermoML archive (doi:10.1016/j.jct.2008.07.010).
Where “and” joins values, the source holds several entries; their conditions need not be identical. Identical values can stand only once. Numbers after ± are expanded uncertainties.

Columns and labels:
[1] = xn = mol fraction of the nth substance listed; conditions: 101 kPa, Liquid, x1 = 1; for viscosity: Capillary tube (Ostwald / Ubbelohde) method; for speed of sound: Sing-around technique in a fixed-path interferometer; for mass density: Vibrating tube method
[2] = 101 kPa, Liquid; for viscosity: Capillary tube (Ostwald / Ubbelohde) method; for speed of sound: Sing-around technique in a fixed-path interferometer; for mass density: Vibrating tube method

Row | Compound | viscosity ([1]; 298.15 K) [mPa·s] | speed of sound ([1]; 298.15 K) [m/s] | mass density ([1]; 298.15 K) [kg/m3] | viscosity ([1]; 303.15 K) [mPa·s] | speed of sound ([1]; 303.15 K) [m/s] | mass density ([1]; 303.15 K) [kg/m3] | viscosity ([1]; 308.15 K) [mPa·s] | speed of sound ([1]; 308.15 K) [m/s] | mass density ([1]; 308.15 K) [kg/m3] | viscosity ([2]; 298.15 K) [mPa·s] | speed of sound ([2]; 298.15 K) | mass density ([2]; 298.15 K) [kg/m3] | viscosity ([2]; 303.15 K) [mPa·s] | speed of sound ([2]; 303.15 K) [m/s] | mass density ([2]; 303.15 K) [kg/m3] | viscosity ([2]; 308.15 K) [mPa·s] | speed of sound ([2]; 308.15 K) [m/s] | mass density ([2]; 308.15 K) [kg/m3]
1 | CC(C)O [propan-2-ol] + CCCCCCCCCCCCCCCC | 2.061 ± 0.018 | 1139.3 ± 0.85 | 781.152 ± 0.15 | 1.758 ± 0.015 | 1122 ± 0.8 | 776.87 ± 0.15 | 1.573 ± 0.013 | 1104.5 ± 0.8 | 772.511 ± 0.15 | – | – | – | – | – | – | – | – | –
2 | CCCCCCCCCCCCCCCC [hexadecane] | – | – | – | – | – | – | – | – | – | 3.041 ± 0.026 | 1338.6 ± 1.3 m/s | 770.456 ± 0.24 | 2.706 ± 0.024 | 1320 ± 1.3 | 766.981 ± 0.24 | 2.409 ± 0.022 | 1301.7 ± 1.3 | 763.52 ± 0.24
3 | CC(C)O [propan-2-ol] + CC(C)CCCC(C)CCCC(C)CCCCC(C)CCCC(C)CCCC(C)C | 2.061 ± 0.018 | 1139.3 ± 0.9 | 781.152 ± 0.15 | 1.758 ± 0.015 | 1122 ± 0.8 | 776.87 ± 0.15 | 1.573 ± 0.013 | 1104.5 ± 0.8 | 772.511 ± 0.15 | – | – | – | – | – | – | – | – | –
4 | CC(C)CCCC(C)CCCC(C)CCCCC(C)CCCC(C)CCCC(C)C (stereo not given) [2,6,10,15,19,23-hexamethyltetracosane] | – | – | – | – | – | – | – | – | – | 28.26 ± 0.31 | 1381.9 ± 1.3 m/s | 805.122 ± 0.24 | 22.09 ± 0.26 | 1364.1 ± 1.3 | 801.912 ± 0.24 | 17.77 ± 0.21 | 1346.5 ± 1.3 | 798.709 ± 0.24
5 | CC(C)O [propan-2-ol] | – | – | – | – | – | – | – | – | – | 2.061 ± 0.018 | 1139.3 ± 0.85 m/s and 1139.3 ± 0.9 m/s | 781.152 ± 0.15 | 1.758 ± 0.015 | 1122 ± 0.8 | 776.87 ± 0.15 | 1.573 ± 0.013 | 1104.5 ± 0.8 | 772.511 ± 0.15
